Experimental findings from ChEMBL document CHEMBL3272079, “Synthesis and preliminary pharmacological activity of aminoalkoxy isosteres of glycolate ester anticholinergics” (J Med Chem, 1977) are described below.

The species named for series [1] is Rattus norvegicus. In words: animal or person. The settings on record: Wistar, ip, route intraperitoneal. It counts as functional.
Description: Anticataleptic activity in albino Wistar rat assessed as inhibition of perphenazine-induced catatonia at 2 mg/kg, ip preincubated for 15 mins followed by perphenazine challenge measured at 3 hrs relative to control
Series [2] is filed under the species Rattus norvegicus. As to the kind of experiment: animal or person. It counts as functional. The settings on record: Wistar, ip, route intraperitoneal. This is another data set of the same source.
Description: Anticataleptic activity in albino Wistar rat assessed as inhibition of perphenazine-induced catatonia at 2 mg/kg, ip preincubated for 15 mins followed by perphenazine challenge measured at 2 hrs relative to control
The species named for series [3] is Rattus norvegicus. In words: animal or person. It counts as functional. The settings on record: Wistar, ip, route intraperitoneal. The source holds these as a separate data set.
Description: Anticataleptic activity in albino Wistar rat assessed as inhibition of perphenazine-induced catatonia at 2 mg/kg, ip preincubated for 15 mins followed by perphenazine challenge measured at 0.5 hrs relative to control
The species entered for series [4] is Rattus norvegicus. In words: animal or person. It counts as functional. The settings on record: Wistar, ip, route intraperitoneal. The source holds these as a separate data set.
Description: Anticataleptic activity in albino Wistar rat assessed as inhibition of perphenazine-induced catatonia at 2 mg/kg, ip preincubated for 15 mins followed by perphenazine challenge measured at 1 hr relative to control
For series [5], the species on record is Rattus norvegicus. The settings on record: Wistar, Jejunum.
Description: Antagonist activity at muscarinic acetylcholine receptor in Wistar rat jejunum assessed as inhibition of acetylcholine-induced contraction preincubated for 2 mins followed by acetylcholine challenge
Series [6] can be described thus: Octanol-phosphate buffer partition coefficient, Kp of the compound at pH 7.4. It counts as physicochemical.
Another series deals with Oryctolagus cuniculus. In words: Central dopaminergic activity in New Zealand rabbit assessed as change in colonic temperature at 5 mg/kg, iv measured every 15 mins for 2 hrs by thermistor probe attached telethermometric analysis. It counts as functional, organism-based. Also noted: dose 5 mg/kg.

Each structure is given as a SMILES string. Where a name gives a salt, the structure may show the parent alone. Active and inactive are the calls of the source. The rule behind the calls is not given here.
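For pD'2 in this document: muscarinic receptor antagonism measured as block of acetylcholine-evoked contraction in isolated jejunum, tissue exposed to test compound for 2 min before the acetylcholine challenge.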

The term inhibition in vivo denotes the relative decrease from the control value, in per cent. A high value points to a response far below the control. As for `CN1[C@@H]2CC[C@H]1C[C@H](OC(=O)C(CO)c1ccccc1)C2` (some centres not stated), the inhibition in vivo at 2 mg/kg in the series listed under Rattus norvegicus [1] was 27%; in the series listed under Rattus norvegicus [2] it was 30%; in the series filed under Rattus norvegicus [3] it was 87%; in the series listed under Rattus norvegicus [4] it was 56%. Also, the pD'2 in the series listed under Rattus norvegicus [5] came out at 7.3.

In turn, `CN1CCC(OCC(O)(c2ccccc2)c2ccccc2)CC1` [listing 1 of 3 here] yielded a pD'2 in the series listed under Rattus norvegicus [5] of 6.24.

Turning to `CCN1CCCC(OCC(O)(c2ccccc2)c2ccccc2)C1` (configuration not stated), the inhibition in vivo at 2 mg/kg was found to be 0% in the series filed under Rattus norvegicus [1], 0% in the series listed under Rattus norvegicus [2], 12% in the series listed under Rattus norvegicus [3] and 0% in the series listed under Rattus norvegicus [4]. Moreover, the pD'2 in the series filed under Rattus norvegicus [5] was 4.95.

`CN1CCC(OCC(O)(c2ccccc2)c2ccccc2)CC1` [listing 2 of 3 here] registered a Kp in series [6] of 3.1.

`CC[N+](C)(CC)CCOCC(O)(c1ccccc1)c1ccccc1`: the pD'2 in the series filed under Rattus norvegicus [5] stood at 6.92.

Regarding `CCN(CC)CCOCC(O)(c1ccccc1)c1ccccc1` [listing 1 of 3 here], the result in the series with Oryctolagus cuniculus was inactive. Further, in the series filed under Rattus norvegicus [5], the pD'2 was 4.92.

`C[N+]1(C)CCCC(OCC(O)(c2ccccc2)c2ccccc2)C1` (configuration not stated): in the series listed under Rattus norvegicus [5], the pD'2 came to 5.68.

As for `CN1CCCC(OCC(O)(c2ccccc2)c2ccccc2)C1` (configuration not stated), the inhibition in vivo at 2 mg/kg stood at 17% in the series filed under Rattus norvegicus [1], 54% in the series filed under Rattus norvegicus [2], 92% in the series filed under Rattus norvegicus [3] and 67% in the series filed under Rattus norvegicus [4]. In addition, in the series filed under Rattus norvegicus [5], the pD'2 is 4.9.

The compound `CCN(CC)CCOCC(O)(c1ccccc1)c1ccccc1` [listing 2 of 3 here] yielded a Kp in series [6] of 5.6.

In series [6], `CCN(CC)CCOC(=O)C(O)(c1ccccc1)c1ccccc1.Cl` showed a Kp of 0.26. The outcome in the series with Oryctolagus cuniculus was inactive.

Consider `CN1[C@@H]2C[C@@H](OC(=O)[C@H](CO)c3ccccc3)C[C@H]1[C@@H]1O[C@@H]12` [SCOPOLAMINE HYDROBROMIDE], for which the inhibition in vivo at 2 mg/kg in the series filed under Rattus norvegicus [1] is 71%; in the series listed under Rattus norvegicus [2], 83%; in the series filed under Rattus norvegicus [3] it was 96%; in the series listed under Rattus norvegicus [4], 96%. The compound also gave a pD'2 in the series filed under Rattus norvegicus [5] of 5.31.

With `CN(C)CCOCC(O)(c1ccccc1)c1ccccc1`, the inhibition in vivo at 2 mg/kg stood at 8% in the series filed under Rattus norvegicus [1], 21% in the series listed under Rattus norvegicus [2], 75% in the series listed under Rattus norvegicus [3] and 21% in the series listed under Rattus norvegicus [4]. In the series listed under Rattus norvegicus [5], this compound showed a pD'2 of 4.68.

Take `C=CCN(CC)CCOCC(O)(c1ccccc1)c1ccccc1`: the inhibition in vivo at 2 mg/kg in the series listed under Rattus norvegicus [1] amounted to 0%; in the series listed under Rattus norvegicus [2], 0%; in the series listed under Rattus norvegicus [3], 8%; in the series listed under Rattus norvegicus [4] it was 0%. The pD'2 in the series filed under Rattus norvegicus [5] is 5.13.

As for `CCN(CC)CCOCC(O)(c1ccccc1)c1ccccc1` [listing 3 of 3 here], the inhibition in vivo at 2 mg/kg stood at 0% in the series filed under Rattus norvegicus [1], 0% in the series filed under Rattus norvegicus [2], 38% in the series filed under Rattus norvegicus [3] and 0% in the series filed under Rattus norvegicus [4].

For the compound `CN(C)CCCOCC(O)(c1ccccc1)c1ccccc1`, the inhibition in vivo at 2 mg/kg came to 17% in the series listed under Rattus norvegicus [1], 54% in the series listed under Rattus norvegicus [2], 100% in the series filed under Rattus norvegicus [3] and 71% in the series filed under Rattus norvegicus [4]. Moreover, the pD'2 in the series listed under Rattus norvegicus [5] was found to be 5.02.

As to `OC(COC1CN2CCC1CC2)(c1ccccc1)c1ccccc1` (configuration not stated), the inhibition in vivo at 2 mg/kg in the series listed under Rattus norvegicus [1] was 48%; in the series filed under Rattus norvegicus [2] it was 56%; in the series filed under Rattus norvegicus [3], 96%; in the series filed under Rattus norvegicus [4], 85%. For the same compound, the outcome in the series with Oryctolagus cuniculus was inactive. In addition, the pD'2 in the series filed under Rattus norvegicus [5] is 6.58.

For `C[N+](C)(C)CCOCC(O)(c1ccccc1)c1ccccc1`, the pD'2 in the series filed under Rattus norvegicus [5] stood at 5.49.

Regarding `CN1CCC(OCC(O)(c2ccccc2)c2ccccc2)CC1` [listing 3 of 3 here], the inhibition in vivo at 2 mg/kg in the series filed under Rattus norvegicus [1] was determined as 0%; in the series filed under Rattus norvegicus [2] it was 7%; in the series filed under Rattus norvegicus [3] it was 80%; in the series filed under Rattus norvegicus [4] it was 37%.

Turning to `C[N+]12CCC(CC1)C(OCC(O)(c1ccccc1)c1ccccc1)C2` (configuration not stated), the pD'2 in the series listed under Rattus norvegicus [5] was determined as 6.18.

Regarding `C=CCN(C)CCOCC(O)(c1ccccc1)c1ccccc1`, the inhibition in vivo at 2 mg/kg came to 0% in the series filed under Rattus norvegicus [1], 17% in the series filed under Rattus norvegicus [2], 79% in the series listed under Rattus norvegicus [3] and 25% in the series filed under Rattus norvegicus [4]. In addition, in the series filed under Rattus norvegicus [5], the pD'2 was determined as 4.09.

In the series listed under Rattus norvegicus [5], `CC[N+]1(C)CCCC(OCC(O)(c2ccccc2)c2ccccc2)C1` (configuration not stated) came in with a pD'2 of 5.

For `CN1CCC(OCC(O)(c2ccccc2)c2ccccc2)C1` (configuration not stated), the inhibition in vivo at 2 mg/kg is 0% in the series listed under Rattus norvegicus [1], 8% in the series filed under Rattus norvegicus [2], 50% in the series listed under Rattus norvegicus [3] and 21% in the series filed under Rattus norvegicus [4]. The same compound had a pD'2 in the series filed under Rattus norvegicus [5] of 5.58.

For `C[N+]1(C)CCC(OCC(O)(c2ccccc2)c2ccccc2)CC1`, the pD'2 in the series filed under Rattus norvegicus [5] amounted to 7.26.
